Test results published in patent US12576059B2, “Methods and compositions for treatment of inflammatory disease” (priority 2021, dated 2026).
Entries after “also recorded” stand apart in the source; their conditions may differ.

Key:
[1] = tested on: LPS-induced acute lung injury; experiment: Example 5: response to intranasal LPS in mice fed AA diets (ALI model); format: in vivo, BALB/c and C57BL/6 mice; conditions: for LPS-induced perivascular edema as measured by alveolar wall thickness: 6 weeks diet, versus H-AA
Protocol: (§1) Mouse diet was from Research Diets (New Brunswick, NJ) based on fat-free AIN-93G. Fat was added at 11.3% by weight total fat and 0.25% either normal H-AA or D-AA respectively (Table 5).
(§2) Male and Female BALB/c and C57BL/6 mice were provided with standard environmental conditions i.e., 22±1° C., 55±5% humidity and 12 h light/dark cycle with free food and water access. At the age of six weeks, animals were split into 8 groups (n=160 total, 20 of each gender) and were continuously fed ad libitum on the diet containing either H-AA or D-AA for 2, 4, 6 or 8 weeks at the daily rate of ca. 5 g of diet per mouse for the duration of the study. The other two groups of animals (n=40, 20 of each gender) received neither PUFA-enriched diets nor LPS served as controls. The body weight and food intake were measured once a week. After completing the appropriate diet course, half of the mice in each group (10 females and 10 males) (i) underwent the procedure of bronchoalveolar lavage (BAL) to accomplish cytological smears, (ii) were subjected to tissue harvesting and collection of colon contents (after humane euthanasia with lethal dose of sodium thiopental, 100 mg/kg intravenously). On the ninth week of this diet course, the other half of the group was administered 1 mg/kg of intranasal (IN) LPS from Escherichia coli O111:B4 (Sigma Aldrich) 24 hours prior to BAL and subsequent euthanasia. 40 D-AA fed animals (20 males, 20 females) were switched to the H-AA diet for washout experiments.
Cell differential counts were performed on smear slides from resuspended cell pellets of BAL, using commercially available May-Grünwald-Giemsa staining kits. All slides were evaluated in a light microscope (Optec BK5000) at ×200 magnification. These cell counts such as lymphocytes, neutrophils, plasmacytes and macrophages were obtained from 10 fields of each slide.
(§3) Lung, stomach and colon samples were fixed with 4% formaldehyde (freshly prepared from paraformaldehyde), paraffin embedded and cut into 2-4 μm sections. For routine histology, all fixed tissue sections were stained with hematoxylin-eosin (H&E). All slides were evaluated at 10 fields each using a Genetic Pro Bino light microscope (A) and photographed with a digital camera (Delta Optical). Stomach and colon tissue sections were analyzed for signs of active and chronic inflammation, formation of lymph follicles, and hyperplasia of epithelial cells. The severity of lung injury was scored according to lung pathological changes, including interalveolar and perivascular hemorrhages, peri-vascular and peribronchial infiltration, perivascular edema, thickness of alveolar wall, alveolar space value, and emphysematous transformations. Lung tissue samples were additionally stained with commercially available Martius Scarlet Blue (MSB) stain kit (Avantik, USA) for fibrin visualization. The presence of homogeneous fibrin masses of yellow, pink or red color in the lung blood vessels were interpreted as thrombotic masses.
We challenged mice fed AA-diets for 6 weeks using LPS treatment. […] Perivascular edema, signs of thrombosis, alveolar wall thickening, irregular distribution of air spaces, and focal areas of alveolar hemorrhage were also observed. We preferred intranasal administration to the more extreme intratracheal route that induces IL-1β which in turn amplifies inflammation making it difficult to distinguish between the early and late consequences of the LPS challenge. Indeed, 24 hours after intranasal administration of LPS at a dose of 1 mg/kg, there was no significant increase in the IL-1B content in BAL fluid or colon homogenates compared to animals not treated with LPS regardless of type or duration of the diets. Intranasal LPS 24 hours post administration increased neutrophils in BAL fluid in all treated groups regardless of gender or form of AA diets.

healthy mice = conditions: mouse, in vivo
Protocol: as §1
as §2, with “experiments. […]” for “experiments.”
as §3, with “masses. […]” for “masses.”
Cell free BAL fluid supernatants as well as colon tissue samples were analyzed using commercially available Mouse IL-1B ELISA Kit (R&D systems, Lot P265854, USA) and the Biotek ELx-808 microplate reader (Biotek, USA) according to the instructions recommended by the manufacturer).

[2] = 6 or 8 weeks diet, compared to H-AA

[2H]C([2H])(/C=C\CCCCC)/C=C\C([2H])([2H])/C=C\C([2H])([2H])/C=C\CCCC(=O)O [D-AA, 7,7,10,10,13,13-D6-arachidonic acid]
LPS-induced interalveolar septa / wall thickening (in words) ([1]; 6-week diet, then single intranasal LPS): greater protective action
alveolar spaces and thickness of interalveolar walls [1, 2]: improved
endotoxin-induced peribronchial infiltration [1, 2]: significantly decreased
LPS-induced lung tissue damage, inflammation and emphysema (in words) ([1]; dietary consumption prior to LPS exposure): substantially mitigated; also recorded: substantially reduced
LPS-induced perivascular edema as measured by alveolar wall thickness ([1]; female mice): almost negligible
LPS-induced perivascular edema as measured by alveolar wall thickness ([1]; male mice): significantly milder effect
inflammatory cell types in BAL, H-AA versus D-AA ([1]; regardless of gender and LPS treatment): No statistically significant differences
alveolar spaces (healthy mice): No relevant changes
average thickness of interalveolar septa, H-AA versus D-AA (healthy mice): did not significantly differ
tolerability (healthy mice): well tolerated without apparent adverse reactions
